The assay has as its target T1, human P2X4 (Homo sapiens, UniProt Q99571).
T1 sequence (Q99571 1-388): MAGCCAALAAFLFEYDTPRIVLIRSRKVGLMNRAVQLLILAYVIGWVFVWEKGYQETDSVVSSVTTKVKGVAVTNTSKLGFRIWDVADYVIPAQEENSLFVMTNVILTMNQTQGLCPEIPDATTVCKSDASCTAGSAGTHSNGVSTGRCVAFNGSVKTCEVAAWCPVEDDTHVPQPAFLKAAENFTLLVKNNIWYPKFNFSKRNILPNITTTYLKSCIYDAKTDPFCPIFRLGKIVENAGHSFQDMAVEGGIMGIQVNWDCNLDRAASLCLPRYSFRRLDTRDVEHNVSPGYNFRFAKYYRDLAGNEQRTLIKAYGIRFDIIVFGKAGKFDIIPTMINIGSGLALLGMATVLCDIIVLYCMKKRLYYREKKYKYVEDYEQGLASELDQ
The assay can be described thus: Human P2X4 HEK Cell FLIPR Assay. The following applies: agonist Bz-ATP at EC80; for Emax: HEK293, HEK293 cells, percentage of maximal inhibition, read-out: Human P2X4 HEK Cells (FLIPR Assay) avg Efficacy [%]; for IC50: HEK293 cells, individual values listed where some fall outside detection range. The format is cell-based. An outline of the steps: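 Calcium flux read by FLIPR for 120 sec after Bz-ATP challenge at EC80 (established each assay day), following 30 min room-temperature compound preincubation in dye-loaded stable human P2X4 HEK293 cells. Peak RFU over basal normalized to agonist control; IC50, maximal inhibition and Hill coefficient from triplicate means.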

A word on the IC50: it is the concentration needed to halve the response being measured.

Regarding `CC(C)c1ncn(-c2ccc(NC(=O)Cc3ccccc3Cl)cc2S(N)(=O)=O)n1` [Example 233, 2-(2-Chlorophenyl)-N-[4-(3-isopropyl-1H-1,2,4-triazol-1-yl)-3-sulfamoylphenyl]-acetamide], the Emax was found to be 80% and the IC50 worked out at 93 nM.
As to `NS(=O)(=O)c1cc(NC(=O)Cc2ccccc2C(F)(F)F)ccc1-n1cc(Cl)cn1` [Example 234, N-[4-(4-Chloro-1H-pyrazol-1-yl)-3-sulfamoylphenyl]-2-[2-(trifluoromethyl)-phenyl]acetamide], the Emax came out at 96% and the IC50 was 93 nM.
The like results for `CCOC(=O)c1cnn(-c2ccc(NC(=O)Cc3ccccc3Cl)cc2S(N)(=O)=O)c1` [Example 235, Ethyl 1-(4-{[(2-chlorophenyl)acetyl]amino}-2-sulfamoylphenyl)-1H-pyrazole-4-carboxylate] were, in that order, 35% and over 25000 nM.
The corresponding values for `CCOC(=O)c1cnn(-c2ccc(NC(=O)Cc3ccccc3F)cc2S(N)(=O)=O)c1` [Example 236, Ethyl 1-(4-{[(2-fluorophenyl)acetyl]amino}-2-sulfamoylphenyl)-1H-pyrazole-4-carboxylate] are 54% and 36 nM.
For the compound `CC(C)(O)c1cnn(-c2ccc(NC(=O)Cc3ccccc3F)cc2S(N)(=O)=O)c1` [Example 237, 2-(2-Fluorophenyl)-N-{4-[4-(2-hydroxypropan-2-yl)-1H-pyrazol-1-yl]-3-sulfamoyl-phenyl}acetamide], the Emax was 72% and the IC50 worked out at 1890 nM.
Turning to `CC(C)(O)c1cnn(-c2ccc(NC(=O)Cc3ccccc3Cl)cc2S(N)(=O)=O)c1` [Example 238, 2-(2-Chlorophenyl)-N-{4-[4-(2-hydroxypropan-2-yl)-1H-pyrazol-1-yl]-3-sulfamoyl-phenyl}acetamide], the Emax was found to be 76% and the IC50 was found to be 682 nM.
The like results for `NS(=O)(=O)c1cc(NC(=O)Cc2cccnc2Cl)ccc1-n1cnc(C(F)(F)F)n1` [Example 239, 2-(2-Chloropyridin-3-yl)-N-{3-sulfamoyl-4-[3-(trifluoromethyl)-1H-1,2,4-triazol-1-yl]phenyl}acetamide] were, in that order, 81% and 2590 nM.
For the compound `CN(C(=O)Cc1ccccc1Cl)c1ccc(-n2cc(C(F)(F)F)cn2)c(S(N)(=O)=O)c1` [Example 240, 2-(2-Chlorophenyl)-N-methyl-N-{3-sulfamoyl-4-[4-(trifluoromethyl)-1H-pyrazol-1-yl]phenyl}acetamide], the Emax is 93% and the half-inhibitory concentration (IC50) was found to be 3440 nM.
The corresponding values for `NS(=O)(=O)c1cc(NC(=O)Cc2ccccc2Cl)ccc1-n1ncc(C(F)(F)F)n1` [Example 241, 2-(2-Chlorophenyl)-N-{3-sulfamoyl-4-[4-(trifluoromethyl)-2H-1,2,3-triazol-2-yl]-phenyl}acetamide] are 92% and 48 nM.
`NS(=O)(=O)c1cc(NC(=O)Cc2ccccc2Cl)ccc1-n1cc(C(F)(F)F)nn1` [Example 242, 2-(2-Chlorophenyl)-N-{3-sulfamoyl-4-[4-(trifluoromethyl)-1H-1,2,3-triazol-1-yl]-phenyl}acetamide]: the Emax came out at 86% and the IC50 came to 37 nM.
Consider `N#Cc1ccc(Cl)c(CC(=O)Nc2ccc(-n3cc(C(F)(F)F)cn3)c(S(N)(=O)=O)c2)c1` [Example 243, 2-(2-Chloro-5-cyanophenyl)-N-{3-sulfamoyl-4-[4-(trifluoromethyl)-1H-pyrazol-1-yl]-phenyl}acetamide], for which the Emax is 87% and the IC50 worked out at 496 nM.
The corresponding values for `N#Cc1cc(NC(=O)Cc2ccccc2Cl)cc(S(N)(=O)=O)c1-n1cc(C(F)(F)F)cn1` [Example 244, 2-(2-Chlorophenyl)-N-{3-cyano-5-sulfamoyl-4-[4-(trifluoromethyl)-1H-pyrazol-1-yl]-phenyl}acetamide] are 73% and 141 nM.
The corresponding values for `NS(=O)(=O)c1cc(NC(=O)Cc2cc(Br)ccc2Cl)ccc1-n1cc(C(F)(F)F)cn1` [Example 245, 2-(5-Bromo-2-chlorophenyl)-N-{3-sulfamoyl-4-[4-(trifluoromethyl)-1H-pyrazol-1-yl]phenyl}acetamide] are 88% and 474 nM.
Consider `NS(=O)(=O)c1cc(NC(=O)Cc2ccccc2F)ccc1-n1cnc(Cl)n1` [Example 246, N-[4-(3-Chloro-1H-1,2,4-triazol-1-yl)-3-sulfamoylphenyl]-2-(2-fluorophenyl)acetamide], for which the Emax turned out to be 100% and the IC50 was 252 nM.
Consider `N#Cc1cc(NC(=O)Cc2ccccc2Cl)cc(S(N)(=O)=O)c1-n1cc(F)cn1` [Example 247, 2-(2-Chlorophenyl)-N-[3-cyano-4-(4-fluoro-1H-pyrazol-1-yl)-5-sulfamoyl-phenyl]acetamide], for which the Emax is 64% and the IC50 came out at 69 nM.
The like results for `Cc1cnn(-c2ccc(NC(=O)Cc3ccccc3Cl)cc2S(N)(=O)=O)c1` [Example 248, 2-(2-Chlorophenyl)-N-[4-(4-methyl-1H-pyrazol-1-yl)-3-sulfamoylphenyl]acetamide] were, in that order, 74% and 84 nM.
Consider `COc1ncn(-c2ccc(NC(=O)Cc3ccccc3Cl)cc2S(N)(=O)=O)n1` [Example 249, 2-(2-Chlorophenyl)-N-[4-(3-methoxy-1H-1,2,4-triazol-1-yl)-3-sulfamoylphenyl]-acetamide], for which the Emax was 72% and the IC50 stood at 8460 nM.
The corresponding values for `NS(=O)(=O)c1cc(NC(=O)Cc2ccccc2Cl)ccc1-n1cnc(C2CC2)c1` [Example 250, 2-(2-Chlorophenyl)-N-[4-(4-cyclopropyl-1H-imidazol-1-yl)-3-sulfamoylphenyl]-acetamide] are 82% and 193 nM.
The like results for `Cc1cn(-c2ccc(NC(=O)Cc3ccccc3Cl)cc2S(N)(=O)=O)cn1` [Example 251, 2-(2-Chlorophenyl)-N-[4-(4-methyl-1H-imidazol-1-yl)-3-sulfamoylphenyl]acetamide] were, in that order, 96% and 21 nM.
Turning to `NS(=O)(=O)c1cc(NC(=O)Cc2ccccc2Cl)ccc1-n1ccc(C2CC2)n1` [Example 252, 2-(2-Chlorophenyl)-N-[4-(3-cyclopropyl-1H-pyrazol-1-yl)-3-sulfamoylphenyl]-acetamide], the Emax came to 88% and the IC50 was 808 nM.
For the compound `NS(=O)(=O)c1cc(NC(=O)Cc2ccccc2Cl)ccc1-n1cc2cccnc2n1` [Example 253, 2-(2-Chlorophenyl)-N-[4-(2H-pyrazolo[3,4-b]pyridin-2-yl)-3-sulfamoylphenyl]-acetamide], the Emax came out at 85% and the IC50 is 257 nM.
The corresponding values for `NS(=O)(=O)c1cc(NC(=O)Cc2ccccc2Cl)ccc1-n1cc2ccncc2n1` [Example 254, 2-(2-Chlorophenyl)-N-[4-(2H-pyrazolo[3,4-c]pyridin-2-yl)-3-sulfamoylphenyl]-acetamide] are 102% and 41 nM.
The corresponding values for `NS(=O)(=O)c1cc(NC(=O)Cc2ccccc2Cl)ccc1-n1cc2ncccc2n1` [Example 255, 2-(2-Chlorophenyl)-N-[4-(2H-pyrazolo[4,3-b]pyridin-2-yl)-3-sulfamoylphenyl]-acetamide] are 81% and 25 nM.
Turning to `COCCc1cnn(-c2ccc(NC(=O)Cc3ccccc3Cl)cc2S(N)(=O)=O)c1` [Example 256, 2-(2-Chlorophenyl)-N-{4-[4-(2-methoxyethyl)-1H-pyrazol-1-yl]-3-sulfamoylphenyl}-acetamide], the Emax was found to be 83% and the IC50 turned out to be 130 nM.
The like results for `NS(=O)(=O)c1cc(NC(=O)Cc2ccccc2Cl)ccc1-n1ccc(F)n1` [Example 257, 2-(2-Chlorophenyl)-N-[4-(3-fluoro-1H-pyrazol-1-yl)-3-sulfamoylphenyl]acetamide] were, in that order, 81% and 51 nM.
The corresponding values for `NS(=O)(=O)c1cc(NC(=O)Cc2ccccc2Cl)ccc1-n1cc(NCC(F)F)cn1` [Example 258, 2-(2-Chlorophenyl)-N-(4-{4-[(2,2-difluoroethyl)amino]-1H-pyrazol-1-yl}-3-sulfamoyl-phenyl)acetamide] are 97% and 30 nM.
The corresponding values for `NS(=O)(=O)c1cc(NC(=O)Cc2ccccc2Cl)ccc1-n1cc(CC(F)F)cn1` [Example 259, 2-(2-Chlorophenyl)-N-{4-[4-(2,2-difluoroethyl)-1H-pyrazol-1-yl]-3-sulfamoylphenyl}-acetamide] are 91% and 50 nM.
Consider `NS(=O)(=O)c1cc(NC(=O)Cc2ccccc2Cl)ccc1-n1cc(CNCC(F)F)cn1` [Example 260, 2-(2-Chlorophenyl)-N-[4-(4-{[(2,2-difluoroethyl)amino]methyl}-1H-pyrazol-1-yl)-3-sulfamoylphenyl]acetamide], for which the Emax is 100% and the IC50 was found to be 398 nM.
The like results for `NS(=O)(=O)c1cc(NC(=O)Cc2ccccc2Cl)ccc1-c1noc(C(F)(F)F)n1` [Example 261, 2-(2-Chlorophenyl)-N-{3-sulfamoyl-4-[5-(trifluoromethyl)-1,2,4-oxadiazol-3-yl]phenyl}acetamide] were, in that order, 81% and 111 nM.

These data come from patent publication US11524938B2, “Aromatic sulfonamide derivatives” (Bayer Pharma Aktiengesellschaft, priority 2016, dated 2022).
